Values joined by “and” are separate entries in the source; they are usually repeats but may differ in a detail not shown here. Identical values can stand only once.

The assay concerns Hs578T multi-cell spheroids, viability. Put plainly: Anticancer human tumor Hs578T cell line growth inhibition [IpAb].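 For all read-outs here: drug exposure lasted 7 days before readout.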 The following applies: for viability, T/C: stronger effect = lower value. In short, it runs like this: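 Combinations with ipatasertib or abemaciclib were tested on tumour spheroids holding HUVEC (25%) and MSC (15%) alongside 60% malignant cells. Top concentration was at or near clinical Cmax (10 microM if undefined), descending in half-log steps.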

Where [1] appears, read: curve of first compound, second compound 0.1 µM.
The mark [2] stands for this setting: curve of first compound, second compound 0.316 µM.
Setting [3] is: curve of first compound, second compound 1 µM.
[4] abbreviates: curve of first compound, second compound 0.01 µM.
The mark [5] stands for this setting: curve of first compound, second compound 0.0316 µM.
Where [6] appears, read: second compound 0.01 µM, first compound 0.0316 µM.
Setting [7] is: second compound 0.01 µM, first compound 0.1 µM.
[8] abbreviates: second compound 0.01 µM, first compound 0.316 µM.
Setting [9] is: second compound 0.01 µM, first compound 1 µM.
The mark [10] stands for this setting: second compound 0.01 µM, first compound 3.16 µM.
Where [11] appears, read: second compound 0.01 µM, first compound 10 µM.
The mark [12] stands for this setting: second compound 0.0316 µM, first compound 0.0316 µM.
[13] abbreviates: second compound 0.0316 µM, first compound 0.1 µM.
[14] abbreviates: second compound 0.0316 µM, first compound 0.316 µM.
[15] abbreviates: second compound 0.0316 µM, first compound 1 µM.
The mark [16] stands for this setting: second compound 0.0316 µM, first compound 3.16 µM.
[17] abbreviates: second compound 0.0316 µM, first compound 10 µM.
The mark [18] stands for this setting: second compound 0.1 µM, first compound 0.0316 µM.
Where [19] appears, read: second compound 0.1 µM, first compound 0.1 µM.
[20] abbreviates: second compound 0.1 µM, first compound 0.316 µM.
[21] abbreviates: second compound 0.1 µM, first compound 1 µM.
Setting [22] is: second compound 0.1 µM, first compound 3.16 µM.
Where [23] appears, read: second compound 0.1 µM, first compound 10 µM.
Where [24] appears, read: second compound 0.316 µM, first compound 0.0316 µM.
Where [25] appears, read: second compound 0.316 µM, first compound 0.1 µM.
The mark [26] stands for this setting: second compound 0.316 µM, first compound 0.316 µM.
[27] abbreviates: second compound 0.316 µM, first compound 1 µM.
[28] abbreviates: second compound 0.316 µM, first compound 3.16 µM.
Where [29] appears, read: second compound 0.316 µM, first compound 10 µM.
Where [30] appears, read: second compound 1 µM, first compound 0.0316 µM.
[31] abbreviates: second compound 1 µM, first compound 0.1 µM.
[32] abbreviates: second compound 1 µM, first compound 0.316 µM.
The mark [33] stands for this setting: second compound 1 µM, first compound 1 µM.
The mark [34] stands for this setting: second compound 1 µM, first compound 3.16 µM.
Where [35] appears, read: second compound 1 µM, first compound 10 µM.

Regarding `CC(C)(C)c1cnc(CSc2cnc(NC(=O)C3CCNCC3)s2)o1` + CC(C)NCC(C(=O)N1CCN(c2ncnc3c2C(C)CC3O)CC1)c1ccc(Cl)cc1, the half-inhibitory concentration (IC50) – broadly, the concentration needed to halve the response being measured – runs as follows: under setting [1], 180 nM; under setting [2], 173 nM; under setting [3], 156 nM; (curve of first compound, second compound 3.16 µM) 108 nM; (curve of first compound, second compound 10 µM) 33.3 nM. The viability, T/C (commonly the result in the treated group divided by that in the control group, in per cent) runs as follows: (second compound 0.1 µM, first compound 0.00949 µM) 104%; (second compound 0.1 µM, first compound 0.03 µM) 114%; (second compound 0.1 µM, first compound 0.0949 µM) 109%; (second compound 0.1 µM, first compound 0.3 µM) 2.64%; (second compound 0.1 µM, first compound 0.949 µM) 2.52%; (second compound 0.1 µM, first compound 3 µM) 3.3%. For the same compound, the viability, T/C was 93.5% (second compound 0.316 µM, first compound 0.00949 µM); 104% (second compound 0.316 µM, first compound 0.03 µM); 107% (second compound 0.316 µM, first compound 0.0949 µM); 2.26% (second compound 0.316 µM, first compound 0.3 µM); 2.29% (second compound 0.316 µM, first compound 0.949 µM); 2.23% (second compound 0.316 µM, first compound 3 µM). Further, the viability, T/C by setting is: (second compound 1 µM, first compound 0.00949 µM) 80.7%; (second compound 1 µM, first compound 0.03 µM) 88.7%; (second compound 1 µM, first compound 0.0949 µM) 89.5%; (second compound 1 µM, first compound 0.3 µM) 2.31%; (second compound 1 µM, first compound 0.949 µM) 2.45%; (second compound 1 µM, first compound 3 µM) 2.32%. The viability, T/C (second compound 3.16 µM, first compound 0.00949 µM) is 60.5%; the viability, T/C (second compound 3.16 µM, first compound 0.03 µM) was 69.6%; the viability, T/C (second compound 3.16 µM, first compound 0.0949 µM) is 56.1%; the viability, T/C (second compound 3.16 µM, first compound 0.3 µM) was 2.25%; the viability, T/C (second compound 3.16 µM, first compound 0.949 µM) is 3.36%; the viability, T/C (second compound 3.16 µM, first compound 3 µM) is 3.32%. Besides, the viability, T/C by setting is: (second compound 10 µM, first compound 0.00949 µM) 49.3%; (second compound 10 µM, first compound 0.03 µM) 57.7%; (second compound 10 µM, first compound 0.0949 µM) 14.8%; (second compound 10 µM, first compound 0.3 µM) 1.74%; (second compound 10 µM, first compound 0.949 µM) 2.09%; (second compound 10 µM, first compound 3 µM) 2.94%.
Consider `CC(C)NCC(C(=O)N1CCN(c2ncnc3c2C(C)CC3O)CC1)c1ccc(Cl)cc1` (centres undefined), for which the viability, T/C was 96.2% [middle of 13 runs] (compound 0.1 µM); 83.9% [middle of 13 runs] (compound 0.316 µM); 66.8% [middle of 13 runs] (compound 1 µM); 53.8% [middle of 12 runs] (compound 3.16 µM); 45% [middle of 13 runs] (compound 10 µM).
As to `Cc1nc(NC(=O)N2CCCC2C(N)=O)sc1-c1ccnc(C(C)(C)C(F)(F)F)c1` (centres undefined) + CCN1CCN(Cc2ccc(Nc3ncc(F)c(-c4cc(F)c5nc(C)n(C(C)C)c5c4)n3)nc2)CC1, the concentration for half-maximal inhibition (IC50) was found to be 1780 nM under setting [4]; 856 nM under setting [5]; 804 nM under setting [1]; 1070 nM under setting [2]; 1230 nM under setting [3]. The viability, T/C runs as follows: under setting [6], 98.5%; under setting [7], 87.2%; under setting [8], 75.9%; under setting [9], 61.1%; under setting [10], 40.4%; under setting [11], 11.9%. In addition, the viability, T/C under setting [12] was 88.5%; the viability, T/C under setting [13] is 72.3%; the viability, T/C under setting [14] is 57.2%; the viability, T/C under setting [15] is 51.2%; the viability, T/C under setting [16] is 38.7%; the viability, T/C under setting [17] was 11.7%. Also, the viability, T/C reads like this: under setting [18], 77%; under setting [19], 68.4%; under setting [20], 60.6%; under setting [21], 43.9%; under setting [22], 37.3%; under setting [23], 11.4%. Further, the viability, T/C under setting [24] was 68.5%; the viability, T/C under setting [25] was 66.7%; the viability, T/C under setting [26] is 60.4%; the viability, T/C under setting [27] was 47.7%; the viability, T/C under setting [28] is 39.8%; the viability, T/C under setting [29] is 17%. In addition, the viability, T/C is, setting by setting: under setting [30], 92.1%; under setting [31], 83.3%; under setting [32], 66.7%; under setting [33], 56.5%; under setting [34], 34%; under setting [35], 23.5%.
Regarding `Cn1nccc1Nc1nccc(-c2ccn(C(CO)c3ccc(Cl)c(F)c3)c(=O)c2)n1` (centres undefined) + CCN1CCN(Cc2ccc(Nc3ncc(F)c(-c4cc(F)c5nc(C)n(C(C)C)c5c4)n3)nc2)CC1, the IC50 came to 5690 nM under setting [4]; 4080 nM under setting [5]; 3490 nM under setting [1]; 6160 nM under setting [2]; 2060 nM under setting [3]. Further, the viability, T/C reads like this: under setting [6], 100%; under setting [7], 109%; under setting [8], 110%; under setting [9], 88.8%; under setting [10], 64.1%; under setting [11], 37.3%. The viability, T/C by setting is: under setting [12], 92.2%; under setting [13], 99.8%; under setting [14], 96.3%; under setting [15], 73.5%; under setting [16], 61.6%; under setting [17], 18.1%. For the same compound, the viability, T/C under setting [18] was 79.2%; the viability, T/C under setting [19] is 86.7%; the viability, T/C under setting [20] was 88.6%; the viability, T/C under setting [21] is 59.6%; the viability, T/C under setting [22] was 56.5%; the viability, T/C under setting [23] is 27.6%. The viability, T/C was 79% under setting [24]; 86.3% under setting [25]; 86% under setting [26]; 71.3% under setting [27]; 63.8% under setting [28]; 40.2% under setting [29]. Besides, the viability, T/C is 81.8% under setting [30]; 79.7% under setting [31]; 85.5% under setting [32]; 58.8% under setting [33]; 50.4% under setting [34]; 39.2% under setting [35].
On to `CC1(C)CCC(CN2CCN(c3ccc(C(=O)NS(=O)(=O)c4ccc(NCC5CCOCC5)c([N+](=O)[O-])c4)c(Oc4cnc5[nH]ccc5c4)c3)CC2)=C(c2ccc(Cl)cc2)C1`, for which the viability, T/C is 105% and 104% (compound 0.0316 µM); 103% and 110% (compound 0.1 µM); 99.5% and 102% (compound 0.316 µM); 104% (compound 1 µM); 89.2% and 92.6% (compound 3.16 µM); 17% and 19% (compound 10 µM). In addition, for the setting “curve of compound”, the IC50 is 5910 nM and 6160 nM.
`CC(=O)c1c(C)c2cnc(Nc3ccc(N4CCNCC4)cn3)nc2n(C2CCCC2)c1=O`: the viability, T/C is, setting by setting: (compound 0.000949 µM) 105% and 108%; (compound 0.003 µM) 90.8% and 99.7%; (compound 0.00949 µM) 92.8% and 87.4%; (compound 0.03 µM) 82.7% and 87.7%; (compound 0.0949 µM) 73.4% and 73.1%; (compound 0.3 µM) 63.6% and 72.5%. Moreover, the IC50 (curve of compound) is over 300 nM.

(Values after PubChem BioAssay AID2060331 (Molecular Pharmacology Branch, DTP, NCI, 2025).)
